The source of these data is patent publication US10881614B2, “Nicotinamide compositions and the therapeutic use thereof” (APeT Holding B.V., priority 2011, dated 2021).

The test system of assay [1] is patients with epilepsy, behavioral and nutritional abnormalities. As to the kind of experiment: Clinical observations under oral nicotinamide therapy. Format: in vivo, human.
The subject of assay [2] is subjects suspected to suffer from tryptophan malabsorption. Particulars: 20 mg/kg/day in six doses, three subjects; cited from earlier work.

As for `NC(=O)c1cccnc1` [nicotinamide, pyridine-3-carboxamide], the “indican in plasma and urine” value in assay [1] (nicotinamide therapy) is recorded as “normalization”. In assay [1] (oral nicotinamide), the “behavioral, neurological and psychiatric abnormalities” value was “Remarkable improvement up to normalization”; the intestinal tryptophan absorption result was “stimulates intestinal tryptophan absorption”. For the same molecule, the “clinical picture under nicotinamide therapy” value in assay [1] (patients with epilepsy, behavioral and nutritional abnormalities hardly improved by antiepileptic, antidepressant and other drugs) was “normalized in one or two months”. In assay [2], the “effect on behavioral and psychiatric illnesses” value is reported as “beneficial effect”.
